Laboratory results reported in patent US10766895B2 (Zhejiang Huahai Pharmaceutical Co., Ltd., priority 2015, dated 2020).

Assays:
[1] = all of organic solvents; cited from earlier work
[2] = Comparative Example 1: heating palbociclib free base in n-butanol and anisole (method of WO2014128588A1); assay type: physicochemical; settings: n-butanol (16 ml/g) and anisole (24 ml/g), heated to 95-100° C.
Description: The seed crystal of crystal form A was required to be added into the reaction system to obtain a crystal form A of palbociclib free base.

Solubility on heating [2]: remained insoluble
Compound: CC(=O)c1c(C)c2cnc(Nc3ccc(N4CCNCC4)cn3)nc2n(C2CCCC2)c1=O [palbociclib free base, 6-acetyl-8-cyclopentyl-5-methyl-2-[[5-(piperazine-1-yl)pyridine-2-yl]amino]-8H-pyrido[2,3-D]pyrimidine-7-ketone]
Solubility in organic solvents [1]: very poor solubility
